Measured values reported in US6737383B1, “Herbicidal oxadiazolidines” (priority 1999, dated 2004).

Legend:
[1] = test system: bedstraw; assay: Test B pre/postemergence bedstraw; assay type: in vivo, Galium aparine
How it was run: (§1)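 Herbicidal effect was estimated by eye on a ten-point control scale after plants spent twelve to sixteen days in a greenhouse following soil or foliar treatment. Foliar sprays targeted plants at one to four leaves; all doses were formulated in a non-phytotoxic solvent with surfactant.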

[2] = test system: blackgrass; assay: Test B pre/postemergence blackgrass; assay type: in vivo, Alopecurus myosuroides
How it was run: as §1

[3] = test system: surinam grass; assay: Test B pre/postemergence surinam grass; assay type: in vivo, Brachiaria decumbens
How it was run: as §1

[4] = test system: cocklebur; assay: Test B pre/postemergence cocklebur; assay type: in vivo, Xanthium strumarium
How it was run: as §1

[5] = test system: crabgrass; assay: Test B pre/postemergence crabgrass; assay type: in vivo, Digitaria sanguinalis
How it was run: as §1

[6] = test system: giant foxtail; assay: Test B pre/postemergence giant foxtail; assay type: in vivo, Setaria faberii
How it was run: as §1

[7] = test system: morningglory; assay: Test B pre/postemergence morningglory; assay type: in vivo, Ipomoea hederacea
How it was run: as §1

[8] = test system: pigweed; assay: Test B pre/postemergence pigweed; assay type: in vivo, Amaranthus retroflexus
How it was run: as §1

[9] = test system: soybean; assay: Test B pre/postemergence soybean; assay type: in vivo, Glycine max
How it was run: as §1

[10] = test system: velvetleaf; assay: Test B pre/postemergence velvetleaf; assay type: in vivo, Abutilon theophrasti
How it was run: as §1

[11] = test system: wheat; assay: Test B pre/postemergence wheat; assay type: in vivo, Triticum aestivum
How it was run: as §1

[12] = test system: wild oat; assay: Test B pre/postemergence wild oat; assay type: in vivo, Avena fatua
How it was run: as §1

[13] = test system: purple nutsedge; assay: Test B pre/postemergence purple nutsedge; assay type: in vivo, Cyperus rotundus
How it was run: as §1

[14] = test system: rice; assay: Test B flood test rice; assay type: in vivo, Oryza sativa
How it was run: (§2)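 Plants were grown to the 2-leaf stage before treatment with test chemical, then held in a greenhouse for twelve to sixteen days. Injury was visually rated against untreated controls on a 0–10 scale, where 0 is no effect and 10 is complete control.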

[15] = test system: smallflower flatsedge; assay: Test B flood test smallflower flatsedge; assay type: in vivo, Cyperus difformis
How it was run: as §2

[16] = test system: bamyardgrass; assay: Test B flood test barnyardgrass; assay type: in vivo, Echinochloa crus-galli
How it was run: as §2

[17] = Postemergence, Rate 62 g/ha, scale of 0 to 10, 0 is no effect, 10 is complete control
[18] = Postemergence, Rate 125 g/ha, scale 0 to 10, 0 is no effect, 10 is complete control
[19] = Postemergence, Rate 500 g/ha, scale of 0 to 10 where 0 is no effect and 10 is complete control
[20] = Preemergence, Rate 62 g/ha, scale 0 to 10 (0 no effect, 10 complete control)
[21] = Preemergence, Rate 125 g/ha, scale 0 to 10, 0 is no effect, 10 is complete control
[22] = Preemergence, Rate 500 g/ha, scale of 0 to 10 where 0 is no effect and 10 is complete control
[23] = Rate 250 g/ha, Postemergence, scale of 0 to 10 where 0 is no effect and 10 is complete control
[24] = Rate 62 g/ha, flood test species, Pre-emergence, visual evaluation after twelve to sixteen days
[25] = Rate 125 g/ha, under heading Pre-emergence, flood test species, visual evaluation after twelve to sixteen days
[26] = Rate 250 g/ha, Pre-emergence (flood test species), scale 0 to 10, 0 is no effect, 10 is complete control
[27] = Rate 500 g/ha, Pre-emergence section of Table B, 0 to 10 scale (0 no effect, 10 complete control)

CCCCn1c(=O)on(C(=O)N(c2ccccc2)C(C)C)c1=O [Compound 556]
Bedstraw plant response rating [1, 17]: 0
Bedstraw plant response rating [1, 18]: 0
Plant response rating, Bedstraw [1, 19]: 0
Bedstraw plant response rating [1, 20]: 0
Bedstraw plant response rating [1, 21]: 0
Bedstraw plant response rating (0 to 10 scale) ([1]; Preemergence, Rate 250 g/ha): 0
Bedstraw plant response rating [1, 22]: 0
Plant response rating, Bedstraw [1, 23]: 0
Blackgrass plant response rating [2, 17]: 0
Blackgrass plant response rating [2, 18]: 3
Plant response rating, Blackgrass [2, 19]: 6
Blackgrass plant response rating [2, 20]: 6
Blackgrass plant response rating [2, 21]: 9
Blackgrass plant response rating (0 to 10 scale) ([2]; Preemergence, Rate 250 g/ha): 10
Blackgrass plant response rating [2, 22]: 10
Plant response rating, Blackgrass [2, 23]: 3
B. signalgrass plant response rating [3, 17]: 0
B. signalgrass plant response rating [3, 18]: 2
Plant response rating, B. signalgrass [3, 19]: 7
B. signalgrass plant response rating [3, 20]: 6
B. signalgrass plant response rating [3, 21]: 7
B. signalgrass plant response rating (0 to 10 scale, 0 is no effect, 10 is complete control) ([3]; Preemergence, Rate 250 g/ha): 7
B. signalgrass plant response rating [3, 22]: 9
Plant response rating, B. signalgrass [3, 23]: 4
Cocklebur plant response rating [4, 17]: 0
Cocklebur plant response rating [4, 18]: 0
Plant response rating, Cocklebur [4, 19]: 0
Cocklebur plant response rating [4, 20]: 0
Cocklebur plant response rating [4, 21]: 0
Cocklebur plant response rating (0 to 10 scale) ([4]; Preemergence, Rate 250 g/ha): 0
Cocklebur plant response rating [4, 22]: 0
Plant response rating, Cocklebur [4, 23]: 0
Crabgrass plant response rating [5, 17]: 0
Crabgrass plant response rating [5, 18]: 2
Plant response rating, Crabgrass [5, 19]: 2
Crabgrass plant response rating [5, 20]: 9
Crabgrass plant response rating [5, 21]: 9
Crabgrass plant response rating (0 to 10 scale) ([5]; Preemergence, Rate 250 g/ha): 9
Crabgrass plant response rating [5, 22]: 10
Plant response rating, Crabgrass [5, 23]: 2
Giant foxtail plant response rating [6, 17]: 4
Giant foxtail plant response rating [6, 18]: 7
Plant response rating, Giant foxtail [6, 19]: 9
Giant foxtail plant response rating [6, 20]: 9
Giant foxtail plant response rating [6, 21]: 9
Giant foxtail plant response rating (0 to 10 scale) ([6]; Preemergence, Rate 250 g/ha): 10
Giant foxtail plant response rating [6, 22]: 10
Plant response rating, Giant foxtail [6, 23]: 9
Morningglory plant response rating [7, 17]: 0
Morningglory plant response rating [7, 18]: 2
Plant response rating, Morningglory [7, 19]: 10
Morningglory plant response rating [7, 20]: 0
Morningglory plant response rating [7, 21]: 0
Morningglory plant response rating (0 to 10 scale) ([7]; Preemergence, Rate 250 g/ha): 0
Morningglory plant response rating [7, 22]: 0
Plant response rating, Morningglory [7, 23]: 4
Redroot pigweed plant response rating [8, 17]: 3
Plant response rating, Redroot pigweed [8, 19]: 4
Redroot pigweed plant response rating [8, 20]: 0
Redroot pigweed plant response rating [8, 21]: 5
Redroot pigweed plant response rating (0 to 10 scale) ([8]; Preemergence, Rate 250 g/ha): 5
Redroot pigweed plant response rating [8, 22]: 5
Plant response rating, Redroot pigweed [8, 23]: 3
Soybean plant response rating [9, 17]: 0
Plant response rating, Soybean [9, 19]: 8
Soybean plant response rating [9, 20]: 0
Soybean plant response rating [9, 21]: 0
Soybean plant response rating (0 to 10 scale) ([9]; Preemergence, Rate 250 g/ha): 0
Soybean plant response rating [9, 22]: 0
Plant response rating, Soybean [9, 23]: 3
Velvetleaf plant response rating [10, 17]: 0
Plant response rating, Velvetleaf [10, 19]: 2
Velvetleaf plant response rating [10, 20]: 0
Velvetleaf plant response rating [10, 21]: 2
Velvetleaf plant response rating (0 to 10 scale) ([10]; Preemergence, Rate 250 g/ha): 3
Velvetleaf plant response rating [10, 22]: 3
Plant response rating, Velvetleaf [10, 23]: 0
Wheat plant response rating [11, 17]: 0
Plant response rating, Wheat [11, 19]: 3
Wheat plant response rating [11, 20]: 0
Wheat plant response rating [11, 21]: 0
Wheat plant response rating (0 to 10 scale) ([11]; Preemergence, Rate 250 g/ha): 3
Wheat plant response rating [11, 22]: 4
Plant response rating, Wheat [11, 23]: 2
Wild oats plant response rating [12, 17]: 2
Plant response rating, Wild oats [12, 19]: 2
Wild oats plant response rating [12, 20]: 0
Wild oats plant response rating [12, 21]: 0
Wild oats plant response rating (0 to 10 scale) ([12]; Preemergence, Rate 250 g/ha): 4
Wild oats plant response rating [12, 22]: 6
Plant response rating, Wild oats [12, 23]: 2
Nutsedge plant response rating [13, 17]: 0
Nutsedge plant response rating [13, 18]: 0
Plant response rating, Nutsedge [13, 19]: 0
Nutsedge plant response rating [13, 20]: 0
Nutsedge plant response rating [13, 21]: 0
Nutsedge plant response rating (0 to 10 scale) ([13]; Preemergence, Rate 250 g/ha): 0
Nutsedge plant response rating [13, 22]: 0
Plant response rating, Nutsedge [13, 23]: 0
Plant response rating, Rice (0 to 10 scale, 0 is no effect, 10 is complete control) [14, 24]: 0
Rice plant response rating (0 to 10 scale, 0 is no effect, 10 is complete control) [14, 25]: 0
Rice plant response rating [14, 26]: 0
Rice plant response rating [14, 27]: 0
Plant response rating, S. Flatsedge (0 to 10 scale, 0 is no effect, 10 is complete control) [15, 24]: 0
S. Flatsedge plant response rating (0 to 10 scale, 0 is no effect, 10 is complete control) [15, 25]: 0
S. Flatsedge plant response rating [15, 26]: 0
S. Flatsedge plant response rating [15, 27]: 0
Plant response rating, Barnyardgrass (0 to 10 scale, 0 is no effect, 10 is complete control) [16, 24]: 0
Barnyardgrass plant response rating (0 to 10 scale, 0 is no effect, 10 is complete control) [16, 25]: 0
Barnyardgrass plant response rating [16, 26]: 0
Barnyardgrass plant response rating [16, 27]: 1
